Consider 21 compounds from patent US6596718B1, “7-Morpholin-4yl-benzothiazole amide derivatives” (Hoffmann-La Roche Inc., priority 2001, dated 2003).

In series [1] the target is T1, human adenosine A1 receptor (Homo sapiens, UniProt P30542).
T1 construct: expressed in transfected cells; host or cells: CHO cells, Semliki Forest virus expression system; membrane preparation
T1 sequence (P30542 1-326): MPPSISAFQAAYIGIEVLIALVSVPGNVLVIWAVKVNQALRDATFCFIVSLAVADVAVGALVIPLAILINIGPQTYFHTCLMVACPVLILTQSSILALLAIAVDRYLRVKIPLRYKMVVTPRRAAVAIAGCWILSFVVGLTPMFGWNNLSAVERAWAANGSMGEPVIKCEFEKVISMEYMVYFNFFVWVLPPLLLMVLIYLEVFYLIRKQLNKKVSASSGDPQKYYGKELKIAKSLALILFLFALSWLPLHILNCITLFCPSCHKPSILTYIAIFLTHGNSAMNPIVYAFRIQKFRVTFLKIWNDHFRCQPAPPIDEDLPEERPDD
The series is described as follows: [3H]-DPCPX binding assay, human adenosine A1 receptor (SPA, CHO cell membranes). Particulars: recombinant human A1 in CHO membranes; [3H]-DPCPX 0.6 nM; Ki by Cheng-Prussoff; read-out: hA1 (pKi) (converted). Here is the method: Human Adenosine A1 Receptor
(§1) The human adenosine A1 receptor was recombinantly expressed in chinese hamster ovary (CHO) cells using the semlilki forest virus expression system. Cells were harvested, washed twice by centrifugation, homogenized and again washed by centrifugation. The final washed membrane pellet was suspended in a Tris (50 mM) buffer containing 120 mM NaCl, 5 mM KCl, 2 mM CaCl2 and 10 mM MgCl2 (pH 7.4) (buffer A). The [^3H]-DPCPX (([propyl-^3H]8-cyclopentyl-1,3-dipropyxanthine); 0.6 nM) binding assay was carried out in 96-well plates in the presence of 2.5 μg of membrane protein, 0.5 mg of Ysi-poly-l-lysine SPA beads and 0.1 U adenosine deaminase in a final volume of 200 μl of buffer A. Non-specific binding was defined using xanthine amine congener (XAC; 2 μM). Compounds were tested at 10 concentrations from 10 μM-0.3 nM. All assays were conducted in duplicate and repeated at least two times. Assay plates were incubated for 1 hour at room temperature before centrifugation and then bound ligand determined using a Packard Topcount scintillation counter. IC50, the concentration where 50% of the […] binding is displaced, values were calculated using a non-linear curve fitting program and ki values calculated using the Cheng-Prussoff equation.

Series [2] has as its target T2, human adenosine A2A receptor (Homo sapiens, UniProt P29274).
T2 construct: expressed in transfected cells; host or cells: CHO cells, Semliki Forest virus expression system; membrane preparation
The experiment in a line: [3H]-SCH-58261 binding assay, human adenosine A2A receptor (SPA, CHO cell membranes). The following applies: recombinant human A2A in CHO membranes; [3H]-SCH-58261 1 nM; Ki by Cheng-Prussoff; read-out: hA2 (pKi) (converted). Here is the method:
Human Adenosine A2A Receptor
as §1, with “adenosine A2A” for “adenosine A1”, “(buffer A)” for “(buffer A).”, “The [^3H]-SCH-58261 (Dionisotti et al., 1997, Br J Pharmacol 121, 353; 1” for “The [^3H]-DPCPX (([propyl-^3H]8-cyclopentyl-1,3-dipropyxanthine); 0.6”, “counter. IC50 values,” for “counter. IC50,”, “displaced,” for “displaced, values”, “and Ki” for “and ki”

T2 sequence (P29274 whole entry): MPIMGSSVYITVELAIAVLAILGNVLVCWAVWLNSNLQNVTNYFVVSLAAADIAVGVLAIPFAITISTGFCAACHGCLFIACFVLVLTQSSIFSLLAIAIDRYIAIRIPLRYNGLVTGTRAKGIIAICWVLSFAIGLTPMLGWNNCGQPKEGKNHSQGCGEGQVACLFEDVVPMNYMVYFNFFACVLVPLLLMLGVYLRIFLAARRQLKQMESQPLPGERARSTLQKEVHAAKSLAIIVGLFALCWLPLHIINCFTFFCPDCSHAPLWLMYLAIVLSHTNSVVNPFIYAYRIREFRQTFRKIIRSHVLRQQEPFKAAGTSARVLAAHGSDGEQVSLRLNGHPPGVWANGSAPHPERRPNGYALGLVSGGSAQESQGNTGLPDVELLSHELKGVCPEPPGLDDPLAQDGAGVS

The melting point is the temperature of the solid-liquid transition. In the case of `COc1ccc(N2CCOCC2)c2sc(C(N)=O)nc12` [Example 1, 4-Methoxy-7-morpholin-4-yl-benzothiazole-2-carboxylic Acid Amide], the melting point lay within 228 to 230 °C. For the same compound, in series [1], the Ki was 3980 nM. Moreover, the Ki in series [2] is 25.1 nM.
For `COc1ccc(N2CCOCC2)c2sc(C(=O)NCCc3ccccc3)nc12` [Example 6, 4-Methoxy-7-morpholin-4-yl benzothiazole-2-carboxylic acid phenethyl-amide], the melting point lay in the range of 50 to 51 °C. The Ki in series [1] is 1260 nM. For the same compound, the Ki in series [2] is 20 nM.
For `COc1ccc(N2CCOCC2)c2sc(C(=O)Nc3cccnc3)nc12` [Example 9, 4-Methoxy-7-morpholin-4-yl-benzothiazole-2-carboxylic acid pyridin-3-ylamide], in that order: 220 to 221 °C, 3980 nM and 15.8 nM.
In turn, `COc1ccc(N2CCOCC2)c2sc(C(=O)NCc3ccccn3)nc12` [Example 13, 4-Methoxy-7-morpholin-4-yl-benzothiazole-2-carboxylic acid (pyridin-2-ylmethyl)-amide] came in with a melting point of 181 to 182 °C. The Ki in series [1] is 6310 nM.
In turn, `COc1ccc(N2CCOCC2)c2sc(C(=O)NCc3cccc(Cl)c3)nc12` [Example 15, 4-Methoxy-7-morpholin-4-yl-benzothiazole-2-carboxylic acid 3-chloro-benzylamide] came in with a melting point of 148 to 150 °C. Further, the Ki in series [1] is 2510 nM. In addition, the Ki in series [2] was 20 nM.
Consider `COc1ccc(N2CCOCC2)c2sc(C(=O)NCc3ccccc3Cl)nc12` [Example 16, 4-Methoxy-7-morpholin-4-yl-benzothiazole-2-carboxylic acid 2-chloro-benzylamide], for which the melting point lay within 114 to 116 °C. Further, the Ki in series [1] was 3980 nM.
Compound `COc1ccc(N2CCOCC2)c2sc(C(=O)NCCc3cccs3)nc12` [Example 22, 4-Methoxy-7-morpholin-4-yl-benzothiazole-2-carboxylic acid (2-thiophen-2-yl-ethyl)-amide] registered a melting point of 120 to 121 °C. Further, in series [1], the Ki was 1260 nM. In addition, the Ki in series [2] is 3.98 nM.
Take `COc1ccccc1CNC(=O)c1nc2c(OC)ccc(N3CCOCC3)c2s1` [Example 25, 4-Methoxy-7-morpholin-4-yl-benzothiazole-2-carboxylic acid 2-methoxy-benzylamide]: the melting point is 186 to 188 °C. Also, in series [1], the Ki is 7940 nM. Further, the Ki in series [2] is 25.1 nM.
With `COc1ccccc1CCNC(=O)c1nc2c(OC)ccc(N3CCOCC3)c2s1` [Example 49, 4-Methoxy-7-morpholin-4-yl-benzothiazole-2-carboxylic acid [2-(2-methoxy-phenyl)-ethyl]-amide], the melting point fell in the range of 158 to 160 °C. Further, in series [1], the Ki was 1580 nM.
`COc1ccc(N2CCOCC2)c2sc(C(=O)NCCc3ccsc3)nc12` [Example 54, 4-Methoxy-7-morpholin-4-yl-benzothiazole-2-carboxylic acid (2-thiophen-3-yl-ethyl)-amide] came in with a melting point of 137 to 139 °C. Also, the Ki in series [1] is 1260 nM. The Ki in series [2] is 6.31 nM.
The compound `COc1ccc(N2CCOCC2)c2sc(C(=O)NCCc3cccnc3)nc12` [Example 55, 4-Methoxy-7-morpholin-4-yl-benzothiazole-2-carboxylic acid (2-pyridin-3-yl-ethyl)-amide] had a melting point of 160 to 163 °C. Moreover, the Ki in series [1] is 6310 nM. Also, the Ki in series [2] is 25.1 nM.
The like results for `COc1ccc(N2CCOCC2)c2sc(C(=O)NCCc3cccc(F)c3)nc12` [Example 57, 4-Methoxy-7-morpholin-4-yl-benzothiazole-2-carboxylic acid [2-(3-fluoro-phenyl)-ethyl]-amide] were, in that order, 120 to 122 °C, 1580 nM and 20 nM.
Compound `COc1ccc(N2CCOCC2)c2sc(C(=O)NCCc3ccc(F)cc3)nc12` [Example 59, 4-Methoxy-7-morpholin-4-yl-benzothiazole-2-carboxylic acid [2-(4-fluoro-phenyl)-ethyl]-amide] showed a melting point of 150 to 153 °C. For the same compound, the Ki in series [1] was 6310 nM.
Compound `COc1ccc(N2CCOCC2)c2sc(C(=O)NCCc3ccc(Cl)cc3)nc12` [Example 62, 4-Methoxy-7-morpholin-4-yl-benzothiazole-2-carboxylic acid [2-(4-chloro-phenyl)-ethyl]-amide] gave a melting point of 153 to 154 °C. For the same compound, the Ki in series [1] is 2000 nM.
Compound `COc1ccc(N2CCOCC2)c2sc(C(=O)NCCc3ccccc3Cl)nc12` [Example 63, 4-Methoxy-7-morpholin-4-yl-benzothiazole-2-carboxylic acid [2-(2-chloro-phenyl)-ethyl]-amide] came in with a melting point of 141 to 143 °C. For the same compound, the Ki in series [1] was 1000 nM. Besides, the Ki in series [2] is 20 nM.
The like results for `COc1cccc(CCNC(=O)c2nc3c(OC)ccc(N4CCOCC4)c3s2)c1` [Example 64, 4-Methoxy-7-morpholin-4-yl-benzothiazole-2-carboxylic acid [2-(3-methoxy-phenyl)-ethyl] amide] were, in that order, 99 to 101 °C, 1260 nM and 25.1 nM.
The like results for `COc1ccc(N2CCOCC2)c2sc(C(=O)NCCc3cccc(Cl)c3)nc12` [Example 65, 4-Methoxy-7-morpholin-4-yl-benzothiazole-2-carboxylic acid [2-(3-chloro-phenyl)-ethyl]-amide] were, in that order, 109 to 111 °C, 501 nM and 25.1 nM.
The like results for `COc1ccc(N2CCOCC2)c2sc(C(=O)NCCc3cccc(C)c3)nc12` [Example 71, 4-Methoxy-7-morpholin-4-yl-benzothiazole-2-carboxylic acid (2-m-tolyl-ethyl)-amide] were, in that order, 119 to 121 °C, 1260 nM and 25.1 nM.
On to `COc1ccc(N2CCOCC2)c2sc(C(=O)NCC(=O)c3sccc3Cl)nc12` [Example 73, 4-Methoxy-7-morpholin-4-yl-benzothiazole-2-carboxylic acid [2-(3-chloro-thiophen-2-yl)-2-oxo-ethyl]-amide], for which the melting point is 125 to 127 °C. The Ki in series [1] was 1580 nM.
The compound `COc1ccc(N2CCOCC2)c2sc(C(=O)NC(C)c3nc(C)cs3)nc12` (stereo not drawn) [Example 77, 4-Methoxy-7-morpholin-4-yl-benzothiazole-2-carboxylic acid [1-(4-methyl-thiazol-2-yl)-ethyl]-amide] showed a melting point of 175 to 176 °C. In addition, the Ki in series [1] was 501 nM. The Ki in series [2] is 5.01 nM.
With `COc1ccc(N2CCOCC2)c2sc(C(=O)NC(C)Cc3cccs3)nc12` (stereo not drawn) [Example 81, 4-Methoxy-7-morpholin-4-yl-benzothiazole-2-carboxylic acid (1-methyl-2-thiophen-2-yl-ethyl)-amide], the melting point was 127 to 129 °C. Besides, the Ki in series [1] is 200 nM. The Ki in series [2] was 1.26 nM.
